{
  "source": "patent US7915402B2",
  "about": "“Antioxidant inflammation modulators: oleanolic acid derivatives with saturation in the C-ring” (Reata Pharmaceuticals, Inc., priority 2008, dated 2011)",
  "key": {"[1]": {"tested_on": "NQO1", "test": "Nrf2 target gene induction, NQO1", "assay_type": "cell-based, human", "details": "MDA-MB-435 cells, 250 nM; fold induction above DMSO control"}, "[2]": {"tested_on": "RAW264.7 macrophages", "test": "Cell viability, WST-1 reagent", "assay_type": "cell-based, mouse", "details": "Mus musculus, RAW264.7 (20 ng/ml IFNγ)", "outline": "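Cells pre-treated with DMSO or compound at various nM concentrations for 2 h, then stimulated with 20 ng/ml recombinant mouse IFNγ for 24 h. Nitrite in medium measured by Griess reagent; viability read by WST-1.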"}, "[3]": {"test": "Aqueous solubility determination (Multiscreen solubility filter plate, UV/vis)", "assay_type": "physicochemical", "details": "universal aqueous buffer, pH 7.4, aqueous buffer, kinetic from dmso stock, universal aqueous buffer pH 7.4, 90 min, room temperature", "procedure": "Aqueous Solubility Determination. The following procedure was used to obtain the aqueous solubility results summarized in Example 8. Step 1. Determination of optimal UV/vis wavelengths and generation of standard curves for a compound of interest: • (1) For eight standard calibration curves (one plate), prepare 34 mL of 50:50 (v:v) universal buffer:acetonitrile in a 50 mL tube. • (2) Using a multichannel pipet, dispense (in μL) the buffer:acetonitrile in a deep well plate as follows:\n• (6) Cover plate with lid and shake (200-300 rpm) at room temperature for 20 minutes. • (7) Mix all wells by pipetting up and down 10 times. • (8) Transfer 120 μL from each well to a UV transparent plate. Cover and shake for 3-5 minutes. Remove any bubbles in the wells using a pipet. • (9) Read from 220 nm to 500 nm at 10 nm increments on a spectrophotometer (e.g., SpectraMax®).\nStep 2. Compound Solubility Testing Procedures Using the Millipore™ Multiscreen® Solubility Filter Plate.\nUniversal Aqueous Buffer: • (a) To prepare 500 mL of universal buffer, add the following: 250 mL Nanopure water; 1.36 mL (45 mM) ethanolamine; 3.08 g (45 mM) potassium dihydrogen phosphate; 2.21 g (45 mM) potassium acetate; thoroughly mix. • (b) Adjust pH to 7.4 with HCl and q.s. to 500 mL with 0.15 M KCl. • (c) Filter to remove particulates and reduce bacterial growth. • (d) Store at 4° C. in the dark.\nSolubility Protocol: • (a) Add 285 μL of Universal Aqueous Buffer to desired wells of the Millipore™ Multiscreen® Solubility filter plate. • (b) Add 15 μL of 10 mM compound in DMSO to the appropriate wells. Add 15 μL of 100% DMSO only to 6 wells of the filter plate for blanks. • (c) Using a multichannel pipet, mix wells by pipetting up and down 10 times. Be careful not to touch the filters in the plate with the tips. • (d) Cover and gently shake (200-300 rpm) filter plate for 90 minutes at room temperature. • (e) Vacuum filter the aqueous solution from the Multiscreen® solubility filter plate into a polypropylene V-bottom plate. • (f) Transfer 60 μL of filtrate to a UV transparent plate (Greiner® UV-Star Analysis Plate). • (g) Add 60 μL of acetonitrile to each well and mix by pipetting up and down 10 times. • (h) Cover and gently shake for 3-5 minutes. Remove any bubbles with a pipet. • (i) Measure the absorbance of each well in the plate on the spectrophotometer (UV/vis) at the desired wavelength. For compounds in a plate with different absorbance peaks, set the spectrophotometer to read a spectrum (e.g., from 220 nm to 460 nm). • (j) Identify concentration using measured absorbance for each compound and the predetermined standard curve (see Step 1)."}, "[4]": {"test": "CNS and lung tissue concentrations after oral dosing in monkeys", "assay_type": "in vivo", "details": "cynomolgus monkey; for excess of mean CNS concentration compared to the dose necessary to suppress inflammation in vitro: vs NO IC50 about 45 nM; for Mean 404-02 CNS Tissue Content (ng/g) ± SEM: day 15, about 3 h after dosing; for Mean 404-02 CNS Tissue Concentration (nM) ± SEM: conversion assumes tissue density 1 g/mL", "procedure": "CNS and lung concentrations following oral dosing: 2 male and 2 female cynomolgus monkeys were administered 404-02 at 0.5, 5, 25 or 75 mg/kg/day doses via oral gavage, in addition to a control (non-treatment) group with 2 animals per sex. Animals were sacrificed approximately 3 hours after dosing on day 15 following harvest of brain and lung tissues. Each sample collected was rinsed in 1× isotonic phosphate buffered saline and blotted dry before weighing. Harvested tissue slices were transferred to cryovials and stored at −80° C. until processing and LC-MS/MS analysis. Standard curves were derived for 404-02 in homogenates of these tissues and were used to quantify the day 15 samples."}, "[5]": {"tested_on": "mice", "details": "sesame oil, N=4"}, "[6]": {"tested_on": "γ-glutamylcysteine synthetase (γ-GCS)", "test": "Nrf2 target gene induction, γ-GCS mRNA (qPCR)", "assay_type": "cell-based, human", "details": "MDA-MB-435 cells", "procedure": "(§1) FIG. 21. Induction of HO-1, TrxR1 and γ-GCS. MDA-MB-435 human melanoma cells were treated with vehicle (DMSO) or the indicated compounds and concentrations for 16 hours. HO-1, thioredoxin reductase-1 (TrxR1), and γ-glutamylcysteine synthetase (γ-GCS) mRNA levels were quantified using qPCR and were normalized relative to a DMSO-treated sample run in parallel. Values are averages of duplicate wells.\nas §1, with “23.” for “21.”, “of” for “of HO-1, TrxR1 and”, “hours.” for “hours. HO-1, thioredoxin reductase-1 (TrxR1), and”\nas §1, with “Nrf2 target gene induction.” for “FIG. 21. Induction of HO-1, TrxR1 and γ-GCS.”, “(TrxR1),” for “(TrxR1), and”, “(γ-GCS), and ferritin heavy chain” for “(γ-GCS)”, “wells. Primer sequences are as follows.” for “wells.”"}, "[7]": {"details": "oral gavage, 0.5 mg/kg/day, day 15"}, "[8]": {"details": "oral gavage, 5 mg/kg/day, day 15"}, "[9]": {"details": "oral gavage, 25 mg/kg/day, day 15"}, "[10]": {"details": "oral gavage, 75 mg/kg/day, day 15"}},
  "note": "Like-named read-outs stand apart in the source and are kept apart here.",
  "data": [
    {"smiles": "CC1(C)CC[C@]2(C(=O)NCC(F)(F)F)CC[C@]3(C)[C@H](C(=O)C[C@@H]4[C@@]5(C)C=C(C#N)C(=O)C(C)(C)[C@@H]5CC[C@]43C)[C@@H]2C1", "note": "[Compound 63102, (4aS,6aR,6bR,8aR,12aR,12bR,14aR,14bS)-11-cyano-2,2,6a,6b,9,9,12a-heptamethyl-10,14-dioxo-N-(2,2,2-trifluoroethyl)-1,2,3,4,4a,5,6,6a,6b,7,8,8a,9,10,12a,12b,13,14,14a,14b-icosahydropicene-4a-carboxamide]", "values": [
      {"measurement": "NQO1 induction", "setting": "[1]", "value": 2, "unit": "fold"},
      {"measurement": "IC50", "setting": "[2]", "value": "> 200", "unit": "nM"},
      {"measurement": "solubility at 90 min", "setting": "[3]", "value": 0.06, "unit": "µM"},
      {"measurement": "concentration at 3 h", "setting": "[4]; both sexes, lung, oral gavage, 25 mg/kg/day, day 15, read-out: Mean 404-02 Lung Tissue Concentration (nM) ± SEM", "value": "246 ± 87", "unit": "nM"},
      {"measurement": "excess of mean CNS concentration compared to the dose necessary to suppress inflammation in vitro", "setting": "[4]; 0.5 mg/kg/day", "value": 48, "unit": "fold"},
      {"measurement": "excess of mean CNS concentration compared to the dose necessary to suppress inflammation in vitro", "setting": "[4]; 5 mg/kg/day", "value": 44, "unit": "fold"},
      {"measurement": "excess of mean CNS concentration compared to the dose necessary to suppress inflammation in vitro", "setting": "[4]; 25 mg/kg/day", "value": 37, "unit": "fold"},
      {"measurement": "increase of mean lung tissue exposure compared to the dose necessary to suppress inflammation in vitro", "setting": "[4]; 75 mg/kg/day", "value": 133, "unit": "fold"},
      {"measurement": "excess of mean CNS concentration compared to the dose necessary to suppress inflammation in vitro", "setting": "[4]; 75 mg/kg/day", "value": 75, "unit": "fold"},
      {"measurement": "Mean 404-02 Lung Tissue Concentration (nM) ± SEM", "setting": "[4]; [7]", "value": "1227 ± 508", "unit": "nM"},
      {"measurement": "Mean 404-02 Lung Tissue Content (ng/g) ± SEM", "setting": "[4]; [7]", "value": "705 ± 292", "unit": "ng/g"},
      {"measurement": "Mean 404-02 CNS Tissue Content (ng/g) ± SEM", "setting": "[4]; oral gavage, 0.5 mg/kg/day", "value": "1198 ± 712", "unit": "ng/g"},
      {"measurement": "Mean 404-02 Lung Tissue Concentration (nM) ± SEM", "setting": "[4]; [8]", "value": "55 ± 27", "unit": "nM"},
      {"measurement": "Mean 404-02 Lung Tissue Content (ng/g) ± SEM", "setting": "[4]; [8]", "value": "24 ± 15", "unit": "ng/g"},
      {"measurement": "Mean 404-02 CNS Tissue Content (ng/g) ± SEM", "setting": "[4]; oral gavage, 5 mg/kg/day", "value": "1090 ± 564", "unit": "ng/g"},
      {"measurement": "Mean 404-02 CNS Tissue Concentration (nM) ± SEM", "setting": "[4]; [8]", "value": "1900 ± 982", "unit": "nM"},
      {"measurement": "Mean 404-02 Lung Tissue Content (ng/g) ± SEM", "setting": "[4]; [9]", "value": "141 ± 50", "unit": "ng/g"},
      {"measurement": "Mean 404-02 CNS Tissue Content (ng/g) ± SEM", "setting": "[4]; oral gavage, 25 mg/kg/day", "value": "930 ± 352", "unit": "ng/g"},
      {"measurement": "Mean 404-02 CNS Tissue Concentration (nM) ± SEM", "setting": "[4]; [9]", "value": "1618 ± 612", "unit": "nM"},
      {"measurement": "Mean 404-02 Lung Tissue Concentration (nM) ± SEM", "setting": "[4]; [10]", "value": "5929 ± 1435", "unit": "nM"},
      {"measurement": "Mean 404-02 Lung Tissue Content (ng/g) ± SEM", "setting": "[4]; [10]", "value": "3405 ± 824", "unit": "ng/g"},
      {"measurement": "Mean 404-02 CNS Tissue Content (ng/g) ± SEM", "setting": "[4]; oral gavage, 75 mg/kg/day", "value": "1898 ± 496", "unit": "ng/g"},
      {"measurement": "Mean 404-02 CNS Tissue Concentration (nM) ± SEM", "setting": "[4]; [10]", "value": "3305 ± 864", "unit": "nM"},
      {"measurement": "Number of Deaths", "setting": "[5]; oral gavage QDx14, 10 mg/kg", "value": 0},
      {"measurement": "Number of Deaths", "setting": "[5]; oral gavage QDx14, 50 mg/kg", "value": 0},
      {"measurement": "Number of Deaths", "setting": "[5]; oral gavage QDx14, 100 mg/kg", "value": 0},
      {"measurement": "Number of Deaths", "setting": "[5]; oral gavage QDx14, 250 mg/kg", "value": 0},
      {"measurement": "γ-GCS induction", "setting": "[6]; 250 nM, fold induction above DMSO control", "value": 4.5, "unit": "fold"},
      {"measurement": "γ-GCS mRNA induction: concentration needed compared with unsaturated counterpart (402, 404)", "setting": "[6]; 16 hours", "value": "higher concentrations"}
    ]}
  ]
}
